From ChEMBL document CHEMBL1201862, “PubChem BioAssay data set” (2004)
Active and inactive are the calls of the source.

Key:
[1] = T. cruzi growth inhibition in host cells, dose response, cell-based, plate reader, dry powder, set 2 (AID 652275); assay type: functional
[2] = growth inhibition of intracellular T. cruzi, dose response, cell-based, plate reader, dry powder samples (AID 651845); assay type: functional
[3] = T. cruzi intracellular amastigote growth inhibition, dose response, imaging, CA-I/72 strain, bovine embryo skeletal muscle, dry powder (AID 651885); assay type: functional, cell-based
[4] = target: Signal transducer and activator of transcription 1-alpha/beta (Homo sapiens, UniProt P42224); assay: STAT1 signalling inhibitors, dose response, cell-based, NIH 3T3, luciferase reporter (AID 1396); assay type: functional
[5] = Late stage results for the probe development effort to identify inhibitors of Plasmodium falciparum gametocytes: Luminescence-based cell-based high throughput dose response assay to identify inhibitors of viability of late stage Plasmodium falciparum gametocytes.; assay type: functional
Protein skinhead-1 = target: T1, Protein skinhead-1 (Caenorhabditis elegans, UniProt P34707); assay type: functional
T1 sequence (P34707 whole entry): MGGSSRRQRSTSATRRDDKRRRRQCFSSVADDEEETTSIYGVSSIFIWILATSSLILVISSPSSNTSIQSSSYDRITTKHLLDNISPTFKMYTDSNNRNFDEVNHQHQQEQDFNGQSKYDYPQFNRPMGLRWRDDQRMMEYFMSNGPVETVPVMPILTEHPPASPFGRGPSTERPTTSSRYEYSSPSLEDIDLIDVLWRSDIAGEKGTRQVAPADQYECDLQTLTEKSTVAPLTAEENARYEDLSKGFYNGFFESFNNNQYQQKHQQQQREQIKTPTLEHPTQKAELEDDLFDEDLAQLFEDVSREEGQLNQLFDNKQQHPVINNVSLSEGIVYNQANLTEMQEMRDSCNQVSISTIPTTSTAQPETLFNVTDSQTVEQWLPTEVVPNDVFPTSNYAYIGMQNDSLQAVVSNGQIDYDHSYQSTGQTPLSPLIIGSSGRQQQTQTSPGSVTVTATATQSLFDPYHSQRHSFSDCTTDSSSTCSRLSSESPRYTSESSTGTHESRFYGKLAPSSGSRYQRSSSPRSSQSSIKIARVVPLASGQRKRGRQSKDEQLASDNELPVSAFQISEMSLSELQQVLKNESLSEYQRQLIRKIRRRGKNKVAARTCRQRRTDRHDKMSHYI

[6] = target: Oxysterols receptor LXR-beta (Homo sapiens, UniProt P55055); assay type: functional, cell-based;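 note: Cell-based luminescence dose-response assay of agonist activity at LXR, run as a confirmatory counterscreen to a daf-12 agonist screen; HEK293 cells with Gal4-LXR fusion and GAL4-driven luciferase reporter; agonist potency from rising luciferase signal of a Gal4-LXR reporter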
[7] = target: T2, DNA repair protein RAD52 homolog (Homo sapiens, UniProt P43351); assay type: functional, biochemical
T2 sequence (P43351 whole entry): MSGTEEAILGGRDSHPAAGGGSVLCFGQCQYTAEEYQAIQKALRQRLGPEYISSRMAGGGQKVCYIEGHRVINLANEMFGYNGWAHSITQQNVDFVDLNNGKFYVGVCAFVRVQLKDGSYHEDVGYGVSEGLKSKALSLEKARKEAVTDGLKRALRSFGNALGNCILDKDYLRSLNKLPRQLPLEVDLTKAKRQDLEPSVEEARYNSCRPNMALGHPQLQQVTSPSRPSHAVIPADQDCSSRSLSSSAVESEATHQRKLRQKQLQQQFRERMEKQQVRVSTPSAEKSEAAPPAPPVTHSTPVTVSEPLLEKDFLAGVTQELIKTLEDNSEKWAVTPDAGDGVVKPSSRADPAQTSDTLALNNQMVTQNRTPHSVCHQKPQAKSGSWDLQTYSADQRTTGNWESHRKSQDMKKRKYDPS

[8] = target: RNA-editing ligase 1, mitochondrial (Trypanosoma brucei brucei, UniProt P86926); assay: TbREL1 ligase inhibitors, dose response, biochemical, fluorescence, Trypanosoma brucei (AID 1117295); assay type: functional
[9] = Vero cell cytotoxicity, dose response, cytotoxicity control for Vif-APOBEC3G degradation inhibitor project, Vero cells (AID 1117358); assay type: functional; details: Human immunodeficiency virus 1, Vero
Paired box protein Pax-8 = Paired box protein Pax-8 (Homo sapiens, UniProt Q06710); assay: inhibitors of PAX8-driven TPO luciferase reporter, dose response, RMG-I cells, cherry-pick (AID 687027); assay type: functional, cell-based;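 note: luciferase reporter driven by Pax8 target thyroperoxidase promoter measured by SteadyGlo luminescence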
[10] = IOSE-T80 ovarian epithelial cell cytotoxicity, dose response, cytotoxicity control for PAX8 inhibitor project, plate reader, dry powder samples (AID 743045); assay type: functional, cell-based
[11] = A549 cell cytotoxicity, dose response, cytotoxicity control, 24 h, CellTiter-Glo luminescence, cherry-picks (AID 1053115); assay type: functional, cell-based; details: A549, 24 h
[12] = NIH:OVCAR-3 ovarian cancer cell cytotoxicity, dose response, PAX8 inhibitor project, plate reader, dry powder samples (AID 743044); assay type: functional, cell-based
[13] = HEK293T cytotoxicity, dose response, cytotoxicity control for miR-122 modulator project, cell-based, inhibitor set, cherry-pick, set 2 (AID 720697); assay type: functional
[14] = HEK293T cytotoxicity, dose response, cytotoxicity control for miR-122 modulator project, cell-based, activator set, cherry-pick (AID 720690); assay type: functional;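 note: HEK293T human cells scored for general mammalian cytotoxicity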
[15] = cytotoxicity in OVCAR8 ovarian cancer cells, dose response, PAX8 project, cell-based, plate reader, dry powder samples (AID 743197); assay type: functional; details: OVCAR-8
[16] = A549 cell cytotoxicity, dose response, CellTiter-Glo luminescence, dry powder, set 17 (AID 1117284); assay type: functional, cell-based
[17] = target: Sphingosine 1-phosphate receptor 2 (Homo sapiens, UniProt O95136); assay: Dose Response Cell Based Assay for Antagonists of the S1P2 Receptor. [Related pubchem assays: 856, 736 ]; assay type: functional
INS1 = assay: beta cell apoptosis inhibitors, cytokine rescue, dose response, luminescence, retest (AID 449756); assay type: functional, cell-based; details: Rattus norvegicus;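 note: cell death triggered by IL-1 beta plus TNF-alpha plus IFN-gamma mixture; protective hits raise ATP signal compared with cytokine alone wells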

Sequence of Signal transducer and activator of transcription 1-alpha/beta (P42224 whole entry): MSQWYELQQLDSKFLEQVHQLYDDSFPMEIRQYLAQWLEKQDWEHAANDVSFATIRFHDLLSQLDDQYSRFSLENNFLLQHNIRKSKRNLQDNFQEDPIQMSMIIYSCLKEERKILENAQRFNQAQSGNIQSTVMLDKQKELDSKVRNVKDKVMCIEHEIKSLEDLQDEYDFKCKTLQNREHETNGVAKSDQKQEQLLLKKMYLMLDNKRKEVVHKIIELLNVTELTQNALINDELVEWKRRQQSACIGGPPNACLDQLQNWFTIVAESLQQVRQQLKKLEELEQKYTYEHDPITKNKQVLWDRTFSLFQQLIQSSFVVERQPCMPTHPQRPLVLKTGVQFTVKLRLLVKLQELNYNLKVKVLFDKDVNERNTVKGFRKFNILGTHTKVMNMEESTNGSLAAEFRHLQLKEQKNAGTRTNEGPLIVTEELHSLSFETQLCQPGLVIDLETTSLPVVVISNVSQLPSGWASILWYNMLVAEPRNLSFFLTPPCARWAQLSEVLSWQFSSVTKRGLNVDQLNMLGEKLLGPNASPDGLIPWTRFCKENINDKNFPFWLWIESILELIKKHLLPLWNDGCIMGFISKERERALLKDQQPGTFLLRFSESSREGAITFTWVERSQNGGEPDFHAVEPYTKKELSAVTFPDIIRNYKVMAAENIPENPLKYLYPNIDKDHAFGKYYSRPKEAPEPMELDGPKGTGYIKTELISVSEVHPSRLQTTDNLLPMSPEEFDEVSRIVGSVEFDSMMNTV
Sequence of Paired box protein Pax-8 (Q06710 whole entry): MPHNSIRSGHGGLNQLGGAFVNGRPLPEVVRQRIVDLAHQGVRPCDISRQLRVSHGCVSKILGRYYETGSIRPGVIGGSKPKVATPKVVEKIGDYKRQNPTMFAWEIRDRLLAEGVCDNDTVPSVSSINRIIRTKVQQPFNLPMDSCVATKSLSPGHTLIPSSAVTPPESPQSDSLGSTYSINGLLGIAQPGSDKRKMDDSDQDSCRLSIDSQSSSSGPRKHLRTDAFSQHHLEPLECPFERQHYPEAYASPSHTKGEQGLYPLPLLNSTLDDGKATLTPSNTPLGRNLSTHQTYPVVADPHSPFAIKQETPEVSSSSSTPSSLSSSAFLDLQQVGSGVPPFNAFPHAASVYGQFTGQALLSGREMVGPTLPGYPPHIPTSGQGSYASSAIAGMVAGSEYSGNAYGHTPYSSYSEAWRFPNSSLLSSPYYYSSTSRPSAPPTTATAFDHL
Sequence of RNA-editing ligase 1, mitochondrial (P86926 whole entry): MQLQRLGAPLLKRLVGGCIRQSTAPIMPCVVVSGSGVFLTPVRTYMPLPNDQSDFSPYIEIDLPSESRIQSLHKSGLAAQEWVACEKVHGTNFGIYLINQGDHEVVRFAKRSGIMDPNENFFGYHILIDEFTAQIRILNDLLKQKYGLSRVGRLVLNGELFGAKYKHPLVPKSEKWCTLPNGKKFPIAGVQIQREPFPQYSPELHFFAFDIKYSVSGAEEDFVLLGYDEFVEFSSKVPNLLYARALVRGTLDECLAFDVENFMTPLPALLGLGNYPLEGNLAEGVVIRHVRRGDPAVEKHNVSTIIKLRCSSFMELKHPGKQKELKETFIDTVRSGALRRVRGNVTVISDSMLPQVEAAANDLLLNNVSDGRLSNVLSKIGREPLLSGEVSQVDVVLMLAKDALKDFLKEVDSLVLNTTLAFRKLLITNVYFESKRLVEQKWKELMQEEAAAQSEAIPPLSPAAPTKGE
Sequence of Sphingosine 1-phosphate receptor 2 (O95136 whole entry): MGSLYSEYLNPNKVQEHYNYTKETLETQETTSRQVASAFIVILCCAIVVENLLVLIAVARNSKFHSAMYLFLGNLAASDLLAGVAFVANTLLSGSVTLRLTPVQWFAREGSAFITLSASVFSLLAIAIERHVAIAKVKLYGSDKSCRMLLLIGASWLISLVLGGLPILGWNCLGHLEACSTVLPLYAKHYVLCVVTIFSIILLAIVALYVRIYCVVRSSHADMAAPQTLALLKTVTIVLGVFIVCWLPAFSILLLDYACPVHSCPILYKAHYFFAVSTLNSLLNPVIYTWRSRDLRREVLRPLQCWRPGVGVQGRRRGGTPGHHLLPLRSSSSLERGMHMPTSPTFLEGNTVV
Sequence of Oxysterols receptor LXR-beta (P55055 whole entry, the tested form may be a part): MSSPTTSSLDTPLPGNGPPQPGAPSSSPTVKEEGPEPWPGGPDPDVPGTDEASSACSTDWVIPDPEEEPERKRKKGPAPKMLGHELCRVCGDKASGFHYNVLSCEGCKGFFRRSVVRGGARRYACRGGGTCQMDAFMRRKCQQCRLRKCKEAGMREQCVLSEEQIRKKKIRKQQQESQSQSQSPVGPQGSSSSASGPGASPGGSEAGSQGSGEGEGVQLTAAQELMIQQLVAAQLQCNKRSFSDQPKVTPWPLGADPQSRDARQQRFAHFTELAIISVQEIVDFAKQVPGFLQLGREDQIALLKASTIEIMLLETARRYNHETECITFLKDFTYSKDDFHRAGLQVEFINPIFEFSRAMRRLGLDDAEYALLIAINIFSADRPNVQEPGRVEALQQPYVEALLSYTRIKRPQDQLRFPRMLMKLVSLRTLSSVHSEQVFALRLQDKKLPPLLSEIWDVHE

Compound: CC(C)N1C[C@H](C)[C@@H](CN(C)Cc2ccc(Oc3ccccc3)cc2)Oc2c(NC(=O)c3ccccc3)cccc2C1=O
- AC50 [1]: 0.506 µM (active)
- AC50 [2]: 0.506 µM (active)
- IC50 [3]: > 20 µM (inactive)

Compound: CC1C(=O)NN=C1C(=O)N/N=C\C(Br)=C\c1ccccc1 (stereo unspecified)
- IC50 [4]: 10.5 µM (not active)

Compound: O=C(Nc1nccs1)c1cc(C2CC2)nn1-c1ccccc1
- IC50 [5]: > 37.2 µM (inactive)

Compound: Clc1ccc(C=Cc2ccccn2)c(Cl)c1
- IC50 (Protein skinhead-1): 4.24 µM (active)
- EC50 [6]: > 67.6 µM (inactive)
- EC50 (cells): > 67.6 µM (inactive)

Compound: COc1ccccc1N(Cc1ccccc1)S(=O)(=O)c1cccc(C(=O)NC2CC(C)(C)NC(C)(C)C2)c1
- AC50 [7]: 13.4 µM (active)
- IC50 [8]: > 96.6 µM (inactive)

Compound: O=C(CSc1nc2cc(Cl)ccc2s1)N1CCN(C(=O)c2ccco2)CC1
- CC50 [9]: > 40 µM (active)

Compound: C[C@H](O)C#Cc1ccc2c(c1)O[C@@H](CN(C)Cc1ccc(-c3ccccc3)cc1)[C@H](C)CN([C@H](C)CO)S2(=O)=O
- AC50 (Paired box protein Pax-8): 5.27 µM (active)
- AC50 [10]: 34.8 µM (active)
- AC50 [11]: 50.8 µM (active)
- AC50 [12]: 46.9 µM (active)
- AC50 [13]: 8.52 µM (active)
- AC50 [14]: 9.51 µM (active)
- AC50 [15]: 44.2 µM (active)
- AC50 [16]: 26.4 µM (active)

Compound: Cc1ccc(-c2nn(-c3ccccc3)cc2/C=N/NC(=O)c2ccc(Br)o2)cc1
- IC50 [17]: 3.36 µM (active)
- AC50 (INS1): 0.716 µM (active)
